{"source": "patent US20120190707A1", "about": "“SELECTIVE INHIBITORS OF AKT AND METHODS OF USING SAME” (priority 2008, published 2012)", "key": {"ATM-CHK2 axis": {"tested_on": "ATM-CHK2 axis", "assay": "ATM and CHK2 phosphorylation (DNA damage response) western analysis in UACC903 cells", "type": "cell-based, human", "protocol": "UACC903 melanoma cells were exposed to vehicle control or 10 μM BI-69A11 for 1 h prior to γ-irradiation (10 Gray). Cells were harvested at the indicated time points post-irradiation and whole cell lysates were subjected to western analysis for phosphorylated ATM, total ATM, phosphorylated Chk2, and PLCγ (as loading control).\nFIG. 14 is an assessment of BI-69A11 analogs on Chk2 phosphorylation. UACC903 melanoma cells were exposed to vehicle control, 10 μM BI-69A11, or 10 μM analog for 2 h. Cells were harvested and whole cell lysates were subjected to western analysis for phosphorylated Chk2 and PLCγ (as loading control).\nTo accomplish this, we g-irradiated vehicle- or BI69A11-treated cells and examined ATM and CHK2 phosphorylation, a well-characterized surrogate of activation (FIG. 13). In vehicle-treated cells, g-irradiation led to the robust phosphorylation of ATM and CHK2.\nWe next examined the panel of BI-69A11 analogs for their ability to stimulate CHK2 phosphorylation in UACC903 cells (FIG. 14).\n(§1) For western blotting techniques, cells were lysed in RIPA buffer containing 50 mM TrisHCl pH7.4, 150 mM NaCl, 2 mM EDTA, 1% NP-40, 0.1% SDS. The protein concentration was estimated using the Coomassie Protein assay kit (Thermo Scientific, Rockford, Ill., USA). Equal concentrations of cell lysate (30-50 ug) were resolved on a 10% polyacrylamide gel and transferred onto Nitrocellulose membrane (GE Amersham). Membranes were blocked for 1-2 hours in either 3% BSA or 5% nonfat dried milk in Tris-buffered saline containing 0.05% Tween 20. Primary antibody incubations were performed overnight at 4° C. with shaking. The blots were washed followed by incubation with a secondary antibody incubation for 1 hour at room temperature. After washing, the blots were scanned on the Odyssey Licor scanner at the appropriate wavelength and the image was captured using the Odyssey software."}, "PARP": {"tested_on": "PARP", "assay": "PARP cleavage in 903 and 29-1 cells", "type": "cell-based, human", "conditions": "2, 4 and 6 hours; listed as BI-69A11", "protocol": "(A) 903 and 29-1 cells were exposed to different concentrations of BI-69A11 or UV light as a positive control and the percentage of cell death determined by trypan blue exclusion assay. (B) PARP cleavage was determined in 903 and 29-1 cells after treatment with BI-69A11 at 2, 4 and 6 hours.\nSince AKT activity is important for tumor cell survival, its inhibition is expected to result in cell death. We thus monitored cell death in melanoma cells that were treated with BI-69A11.\nas §1"}, "p38.alpha": {"molecular_target": "p38.alpha (Homo sapiens, UniProt Q16539)", "sequence (Q16539 whole entry)": "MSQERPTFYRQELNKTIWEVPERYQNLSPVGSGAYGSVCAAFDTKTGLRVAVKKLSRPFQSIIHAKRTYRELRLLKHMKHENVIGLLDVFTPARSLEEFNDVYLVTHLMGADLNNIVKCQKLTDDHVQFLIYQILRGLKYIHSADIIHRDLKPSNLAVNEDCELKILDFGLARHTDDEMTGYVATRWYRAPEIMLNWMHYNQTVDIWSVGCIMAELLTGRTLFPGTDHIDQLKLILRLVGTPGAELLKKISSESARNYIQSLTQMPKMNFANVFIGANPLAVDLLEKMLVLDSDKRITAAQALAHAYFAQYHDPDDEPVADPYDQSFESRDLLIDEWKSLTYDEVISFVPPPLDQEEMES", "assay": "Activity of other protein kinases: p38.alpha", "type": "biochemical", "conditions": "100 micro.M"}, "MeWo melanoma cells": {"tested_on": "MeWo melanoma cells", "assay": "Cell death by trypan blue staining, MeWo", "type": "cell-based", "protocol": "(§2) (A) MeWo melanoma cells growing in 60 mm plates were treated with the indicated concentration of the inhibitor for 4 h before proteins were prepared for western blot analysis using the indicated antibodies. Level of beta.actin was monitored as a control for protein loading. (B) Experiment was performed as indicated in panel A, except that cells were harvested after 24 h for analysis of cell death using trypan blue staining. (C) Melanoma (MeWo), prostate cancer (PC3) and breast cancer (MCF7) cells were treated with BI-69A11 at the indicated concentrations; levels of AKT phosphorylation or expression were assessed 4 h later. The level of beta.actin used as a control for protein loading. (D) Experiment was performed as indicated in panel C, except that cells were harvested after 4 h for analysis of cell death using trypan blue staining.\nTo evaluate the effectiveness of BI-69A11 on melanoma cells we assessed the effect of different concentrations on AKT phosphorylation in MeWO cells.\nFor the proliferation assays, cells were treated as described above. However, instead of scraping cells into the serum-free medium, floating cells were collected in a 15 mL centrifuge tube whereas adherent cells trypsinized gently. The total cell population was pooled and counted on a hemocytometer after staining with Trypan Blue."}, "Abl1": {"molecular_target": "Abl1 (Homo sapiens, UniProt P00519)", "sequence (P00519 whole entry, species assumed)": "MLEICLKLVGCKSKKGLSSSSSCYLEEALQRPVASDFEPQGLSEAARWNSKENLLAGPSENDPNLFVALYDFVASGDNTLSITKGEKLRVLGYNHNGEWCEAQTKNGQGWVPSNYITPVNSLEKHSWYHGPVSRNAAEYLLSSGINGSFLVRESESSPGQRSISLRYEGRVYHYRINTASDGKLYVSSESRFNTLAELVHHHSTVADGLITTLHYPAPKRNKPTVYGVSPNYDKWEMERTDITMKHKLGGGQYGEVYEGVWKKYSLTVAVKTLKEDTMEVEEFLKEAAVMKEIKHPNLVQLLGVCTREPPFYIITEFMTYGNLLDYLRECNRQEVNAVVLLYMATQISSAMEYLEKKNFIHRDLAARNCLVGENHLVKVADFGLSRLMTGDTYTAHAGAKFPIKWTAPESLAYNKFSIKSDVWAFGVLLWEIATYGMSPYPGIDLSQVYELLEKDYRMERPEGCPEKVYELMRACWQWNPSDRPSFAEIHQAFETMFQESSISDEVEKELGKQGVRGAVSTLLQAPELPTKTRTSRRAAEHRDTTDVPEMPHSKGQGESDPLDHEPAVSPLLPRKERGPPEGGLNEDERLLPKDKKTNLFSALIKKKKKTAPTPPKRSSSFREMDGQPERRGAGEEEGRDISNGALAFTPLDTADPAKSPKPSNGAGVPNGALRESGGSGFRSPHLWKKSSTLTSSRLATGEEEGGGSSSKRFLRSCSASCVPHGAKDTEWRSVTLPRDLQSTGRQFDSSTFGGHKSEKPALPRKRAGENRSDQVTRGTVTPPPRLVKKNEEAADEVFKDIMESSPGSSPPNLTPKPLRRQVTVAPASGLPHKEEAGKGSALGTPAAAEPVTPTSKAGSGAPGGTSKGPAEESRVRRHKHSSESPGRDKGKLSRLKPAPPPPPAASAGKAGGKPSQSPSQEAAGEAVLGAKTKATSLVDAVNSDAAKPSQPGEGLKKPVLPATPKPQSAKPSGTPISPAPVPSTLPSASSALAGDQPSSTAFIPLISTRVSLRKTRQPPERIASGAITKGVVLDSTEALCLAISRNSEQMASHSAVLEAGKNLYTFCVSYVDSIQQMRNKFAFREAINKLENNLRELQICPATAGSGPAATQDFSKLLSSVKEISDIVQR", "assay": "Non related protein kinase Abl1 inhibition", "type": "biochemical", "conditions": "concentrations up to 100 μM", "from_the_text": "In addition, we tested our compounds against a non related protein kinase, Abl1 (22), which is a tyrosine kinase under investigation in our laboratory.\nWe recently reported on the direct evaluation of a number of in silico approaches to identify AKT inhibitors (Forino et al., 2005) We achieved experimental validation of selected compounds using both a fluorescence-based enzymatic assay and a substrate phosphorylation assay involving the protein GSK-3 (Forino et al., 2005). Briefly, the virtual docking approach consists of selecting the top 4,000 out of 50,000 docked compounds, using a variety of computational docking approaches, including a consensus score among two different scoring functions (Forino et al., 2005). Of those, 100 compounds were selected based on ranking and favorable docking geometry."}, "AKT": {"tested_on": "AKT", "assay": "AKT phosphorylation and expression by western blot in PC3 prostate tumor cells", "type": "cell-based", "conditions": "PC3, 5 and 10 micro.M", "protocol": "as §2\nFor western blotting techniques, cells were lysed in RIPA buffer containing 50 mM TrisHCl pH7.4, 150 mM NaCl, 2 mM EDTA, 1% NP-40, 0.1% SDS. The protein concentration was estimated using the Coomassie Protein assay kit (Thermo Scientific, Rockford, Ill., USA). Equal concentrations of cell lysate (30-50 ug) were resolved on a 10% polyacrylamide gel and transferred onto Nitrocellulose membrane (GE Amersham). Membranes were blocked for 1-2 hours in either 3% BSA or 5% nonfat dried milk in Tris-buffered saline containing 0.05% Tween 20. […]"}, "NRAS/Ink4a mice": {"tested_on": "NRAS/Ink4a mice", "assay": "Melanoma development in NRAS/Ink4a mice", "type": "in vivo", "protocol": "The NRAS/Ink4a mice harbor a Q61K NRAS activating mutation, as is seen in 15% of human melanomas, on an Ink4a-deficient background, which mimics the mutations often seen in this locus (p16) in human melanoma.\nThe NRAS/Ink4a mouse develops melanoma with penetrance of about 25-50% which is often accompanied by metastasis to the lymph nodes.\nTo examine the effect of BI-69A11 treatment on in vivo melanoma development, BI-69A11 was administered to a cohort of 30 mice twice per week (IP, 0.5 mg/kg), starting at week 28 after NRAS expression. A control group of 30 mice received the control vehicle formulation. In this model, by 28 weeks many mice already developed melanoma. Those were not included in our study which was restricted to animals that have not yet developed melanoma. Nevertheless, in a clinical setting, preventive treatment could be administered prior to tumor development, at a stage where early stages of development had been initiated.\nNRAS expression was induced in NRAS/INK4a mice (time 0) and the mice were maintained for 40 weeks. Starting at 28 weeks, animals received BI-69A11 at 0.5 mg/kg by IP injection twice weekly.\nNRAS expression was induced in NRAS/INK4a mice and 28 weeks later treatment with BI-69A11 was initiated. Internal tumors developed in this model were fibrosarcomas, whereas the skin tumors were melanomas (confirmed by immunostaining with S100 and DCT).\nAn additional experimental group included animals from the same melanoma model, albeit, those were treated earlier (after 10 weeks rather than 28)."}, "melanocytes": {"tested_on": "melanocytes", "assay": "AKT phosphorylation and toxicity in cultured melanocytes", "type": "cell-based", "conditions": "data not shown"}, "[1]": {"conditions": "IP 0.5 mg/kg twice per week from week 28"}}, "note": "Entries after “also recorded” stand apart in the source; their conditions may differ."}
{"smiles": "O=C(/C=C/c1nc2ccccc2[nH]1)c1c(O)nc2ccc(Cl)cc2c1-c1ccccc1", "note": "[Compound 2, (E)-3-(3-(1H-benzo[d]imidazol-2-yl)acryloyl)-6-chloro-4-phenylquinolin-2(1H)-one]", "values": [{"measurement": "ATM and CHK2 phosphorylation in the absence of radiation", "setting": "ATM-CHK2 axis; 10 μM", "result": "leads to ATM and CHK2 phosphorylation"}, {"measurement": "ATM or CHK2 phosphorylation following g-irradiation", "setting": "ATM-CHK2 axis; 10 μM for 1 h prior to γ-irradiation (10 Gray)", "result": "did not inhibit"}, {"measurement": "CHK2 phosphorylation / activation", "setting": "ATM-CHK2 axis; 10 μM for 2 h", "result": "induced the activation of CHK2 to a similar extent"}, {"measurement": "PARP cleavage, 903 cells compared with 29-1", "setting": "PARP", "result": "more pronounced in the UAC903 cells; also recorded: Increased PARP cleavage"}, {"measurement": "effect on p38.alpha activity", "setting": "p38.alpha", "result": "did not affect"}, {"measurement": "cell death", "setting": "MeWo melanoma cells; 3 micro.M, within 24 hours", "result": "about 60%"}, {"measurement": "cell death", "setting": "MeWo melanoma cells; 5 micro.M, within 4 hours", "result": "about 25%"}, {"measurement": "inhibition of Abl1", "setting": "Abl1", "result": "did not affect"}, {"measurement": "AKT protein levels", "setting": "AKT", "result": "reduced levels of AKT protein"}, {"measurement": "basal level of AKT phosphorylation", "setting": "AKT; 4 h", "result": "effectively inhibited"}, {"measurement": "inhibition in the fibrosarcoma group", "setting": "NRAS/Ink4a mice; [1]", "result": "~50", "unit": "%"}, {"measurement": "inhibition of melanomas", "setting": "NRAS/Ink4a mice; [1]", "result": "~68", "unit": "%"}, {"measurement": "share of the 25 melanomas that developed in the treated group", "setting": "NRAS/Ink4a mice; [1]", "result": 32, "unit": "%"}, {"measurement": "total number of tumors developed", "setting": "NRAS/Ink4a mice; IP 0.5 mg/kg twice per week from week 28, up to 40 weeks, 30 tumors in control group", "result": 19}, {"measurement": "number of melanomas", "setting": "NRAS/Ink4a mice; IP 0.5 mg/kg twice per week from week 28, control 17", "result": 8}, {"measurement": "prevention with administration after 10 weeks compared with after 28 weeks", "setting": "NRAS/Ink4a mice; mouse, in vivo", "result": "as effective as"}, {"measurement": "AKT phosphorylation in growth factor-maintained melanocytes", "setting": "melanocytes; coincided with cell death", "result": "efficient inhibition of AKT phosphorylation"}, {"measurement": "toxic effect on melanocytes deprived of growth factors", "setting": "melanocytes; deprived for 24 h", "result": "no longer elicit toxic effect"}]}
